Assay results from patent US10793563B2, “GCN2 inhibitors and uses thereof” (Merck Patent GmbH, priority 2018, dated 2020).

What was measured:
GCN2 kinase = GCN2 kinase (Homo sapiens (Human), UniProt Q9P2K8); assay: GCN2 Enzyme Inhibition Assay (Transcreener ADP2 fluorescence polarization); type: biochemical; details: 280 μM ATP, 200 μM (RS)7 peptide, 4 nM GCN2, 25° C.; for Ki: Ki(app)
Procedure, shortened: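 At 25 °C, GCN2 kinase (typical final concentration 4 nM) and (RS)7 peptide in Tris-HCl pH 7.5 buffer with MgCl2, NaCl and DTT were preincubated with compound for 10 min, then ATP was added for a 1 h reaction. ADP was read by FP with antibody/Alexa633 tracer. Non-linear tight-binding analysis gave IC50 and apparent Ki.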

[1] = biological target: intracellular GCN2 (phosphorylation of the GCN2 substrate eIF2α) (Homo sapiens (Human), UniProt Q9P2K8); assay: GCN2 Cellular Inhibition Assay (AlphaScreen SureFire P-eIF2α Ser51, borrelidin-treated U2OS cells); type: cell-based; details: 10 μM borrelidin, 1 h, phosphorylated eIF2α Ser51, read-out: GCN2 Biomarker (IC50)
intracellular GCN2 (phosphorylation of the GCN2 substrate eIF2α), sequence (Q9P2K8 whole entry): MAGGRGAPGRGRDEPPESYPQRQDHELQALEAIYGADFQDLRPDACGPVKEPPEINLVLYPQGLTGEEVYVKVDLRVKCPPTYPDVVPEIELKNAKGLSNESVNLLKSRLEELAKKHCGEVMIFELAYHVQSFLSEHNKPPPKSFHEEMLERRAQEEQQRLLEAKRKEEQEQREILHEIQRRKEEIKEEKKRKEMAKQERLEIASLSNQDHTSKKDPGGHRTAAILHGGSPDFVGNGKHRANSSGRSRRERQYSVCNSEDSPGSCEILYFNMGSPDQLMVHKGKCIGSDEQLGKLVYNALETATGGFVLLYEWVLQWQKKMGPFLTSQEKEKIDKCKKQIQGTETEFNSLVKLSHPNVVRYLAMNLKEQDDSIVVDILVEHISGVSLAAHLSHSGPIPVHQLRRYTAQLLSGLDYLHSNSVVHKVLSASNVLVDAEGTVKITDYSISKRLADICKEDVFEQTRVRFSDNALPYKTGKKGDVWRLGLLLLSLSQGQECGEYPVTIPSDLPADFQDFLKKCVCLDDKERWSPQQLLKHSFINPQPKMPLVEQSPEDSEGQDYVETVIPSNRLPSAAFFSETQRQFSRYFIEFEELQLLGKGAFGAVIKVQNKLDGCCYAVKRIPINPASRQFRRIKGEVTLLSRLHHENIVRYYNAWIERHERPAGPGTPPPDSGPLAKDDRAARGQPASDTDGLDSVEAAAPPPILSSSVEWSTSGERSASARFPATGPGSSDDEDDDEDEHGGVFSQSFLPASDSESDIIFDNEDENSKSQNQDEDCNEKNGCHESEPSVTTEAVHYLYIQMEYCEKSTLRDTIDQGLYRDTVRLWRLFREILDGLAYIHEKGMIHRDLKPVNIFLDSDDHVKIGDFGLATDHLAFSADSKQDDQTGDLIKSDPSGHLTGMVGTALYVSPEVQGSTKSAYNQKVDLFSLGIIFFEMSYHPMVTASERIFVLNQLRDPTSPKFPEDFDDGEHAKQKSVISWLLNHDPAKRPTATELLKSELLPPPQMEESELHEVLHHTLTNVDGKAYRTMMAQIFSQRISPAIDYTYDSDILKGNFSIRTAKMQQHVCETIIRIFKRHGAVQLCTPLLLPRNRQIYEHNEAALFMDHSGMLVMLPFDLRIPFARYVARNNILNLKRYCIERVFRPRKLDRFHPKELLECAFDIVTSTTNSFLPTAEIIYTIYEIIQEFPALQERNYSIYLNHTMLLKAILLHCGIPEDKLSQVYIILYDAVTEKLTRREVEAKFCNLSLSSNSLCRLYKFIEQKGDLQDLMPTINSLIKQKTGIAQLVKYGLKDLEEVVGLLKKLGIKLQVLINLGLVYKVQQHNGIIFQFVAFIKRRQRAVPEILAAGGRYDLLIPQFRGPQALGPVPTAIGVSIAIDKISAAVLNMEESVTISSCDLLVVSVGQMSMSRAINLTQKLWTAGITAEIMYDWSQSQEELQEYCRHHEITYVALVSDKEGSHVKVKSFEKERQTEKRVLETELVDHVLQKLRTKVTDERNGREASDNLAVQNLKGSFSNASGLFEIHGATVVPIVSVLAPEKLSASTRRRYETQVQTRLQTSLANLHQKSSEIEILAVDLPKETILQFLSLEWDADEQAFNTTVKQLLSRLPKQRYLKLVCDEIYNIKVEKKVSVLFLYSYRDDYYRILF
Description: Compounds can be screened for their ability to inhibit intracellular GCN2 using an AlphaScreen assay (Perkin Elmer) to detect phosphorylation of the GCN2 substrate eIF2α in borrelidin-treated cells. U2OS cells are plated at 5,000 cells per well in 384-well white polystyrene plates (Corning 3570) in McCoy's 5A media (GIBCO 26600-023) supplemented with 10% foetal bovine serum (SAFC 12103C), Penicillin/Streptomycin solution diluted 1:100 (Sigma P0781), and 2 mM L-glutamine (Sigma G7513), and allowed to adhere overnight at 37° C. in 5% CO2. Compounds are then added to the cell media from a final concentration of 40 μM in 4-fold serial dilutions. Borrelidin (FluoroChem M01440) is immediately added to the wells to a final concentration of 10 μM and the cells are incubated for 1 h at 37° C. in 5% CO2. After 1 h of treatment with borrelidin, the media is removed, and the cells are lysed with lysis buffer (TGR BioSceinces TGRLB) at ambient temperature.
An AlphaScreen SureFire P-eIF2α (Ser51) assay kit (Perkin Elmer TGREIF2S) was used to measure levels of eIF2α phosphorylated on Serine 51. Anti-phosphorylated eIF2α Ser51 antibody-linked acceptor beads (TGR BioScience 6760617) are added to the cell homogenate (diluted 1:250 into a mixture of activation (TGR BioScience TGRAB) and reaction buffer (TGR BioScience TGREIF2S) prepared immediately before use). The plate is then incubated for 2 h at ambient temperature in the dark. Anti-eIF2α antibody-linked donor beads (TGR BioScience 6760617) were then added (diluted 1:100 in dilution buffer (TGR BioScience TGRDB) prepared immediately before use). The plate is then incubated overnight at ambient temperature in the dark.
Plates are analyzed on an Alpha Technology-compatible PHERAstar FS plate reader (BMG Labtech Version 1.14) to quantify phosphorylated eIF2α Ser51 levels. The percentage inhibition of phosphorylated eIF2α is calculated by comparison to control wells stimulated with borrelidin alone.

GCN2 kinase, sequence (Q9P2K8 whole entry): as above

SMILES	Ki (GCN2 kinase)	IC50 [1]	IC50 (GCN2 kinase)
CC1CN(c2nccc(-c3cnc4ccc(C(F)(F)F)cn34)n2)C(C)C(c2cn[nH]c2)N1 (single isomer, unassigned) [I-33, 3-[2-[2,5-Dimethyl-3-(1H-pyrazol-4-yl)piperazin-1-yl]pyrimidin-4-yl]-6-(trifluoromethyl)imidazo[1,2-a]pyridine]	10 to 100 nM	> 5000 nM	–
FC(F)(F)c1ccc2ncc(-c3nccc(N4CCN(C5CC6(COC6)C5)[C@@H](c5cn[nH]c5)C4)n3)n2c1 [I-502, (S)-3-(4-(3-(1H-pyrazol-4-yl)-4-(2-oxaspiro[3.3]heptan-6-yl)piperazin-1-yl)pyrimidin-2-yl)-6-(trifluoromethyl)imidazo[1,2-a]pyridine]	–	< 500 nM	10 to 100 nM
C[C@H]1[C@@H](c2cn[nH]c2)N(C2COC2)CCN1c1ccnc(-c2cnc3ccc(C(F)(F)F)cn23)n1 [I-361, 3-(4-((2S,3R)-2-methyl-4-(oxetan-3-yl)-3-(1H-pyrazol-4-yl)piperazin-1-yl)pyrimidin-2-yl)-6-(trifluoromethyl)imidazo[1,2-a]pyridine]	–	500 to 5000 nM	10 to 100 nM
CN(C)C(=O)C1CCCN(c2ccnc(-c3cnc4ccc(C(F)(F)F)cn34)n2)C1 (stereo not shown) [I-130, N,N-dimethyl-1-(2-(6-(trifluoromethyl)imidazo[1,2-a]pyridin-3-yl)pyrimidin-4-yl)piperidine-3-carboxamide]	–	500 to 5000 nM	10 to 100 nM
FC(F)(F)c1ccc2ncc(-c3nccc(N4CCN(Cc5ncc[nH]5)C(c5cn[nH]c5)C4)n3)n2c1 (stereo not shown) [I-371, 3-(4-(4-((1H-imidazol-2-yl)methyl)-3-(1H-pyrazol-4-yl)piperazin-1-yl)pyrimidin-2-yl)-6-(trifluoromethyl)imidazo[1,2-a]pyridine]	–	500 to 5000 nM	< 10 nM
CC(C)n1ccc(C(=O)N2[C@H](C)CN(c3ccnc(-c4cnc5ccc(C(F)(F)F)cn45)n3)C[C@@H]2C)n1 [I-401, (cis-2,6-dimethyl-4-(2-(6-(trifluoromethyl)imidazo[12-a]pyridin-3-yl)pyrimidin-4-yl)piperazin-1-yl)(1-isopropyl-1H-pyrazol-3-yl)methanone]	–	500 to 5000 nM	100 to 1000 nM
FC(F)(F)c1ccc2ncc(-c3ccnc(N4CCN(C[C@@H]5CCCOC5)[C@@H](c5cn[nH]c5)C4)n3)n2c1 [I-546, 3-(2-((S)-3-(1H-pyrazol-4-yl)-4-(((S)-tetrahydro-2H-pyran-3-yl)methyl)piperazin-1-yl)pyrimidin-4-yl)-6-(trifluoromethyl)imidazo[1,2-a]pyridine]	–	< 500 nM	< 10 nM
FC(F)C1CN(c2ccnc(-c3cnc4ccc(C(F)(F)F)cn34)n2)CCO1 (stereo not shown) [I-225, 2-(difluoromethyl)-4-(2-(6-(trifluoromethyl)imidazo[12-a]pyridin-3-yl)pyrimidin-4-yl)morpholine]	–	500 to 5000 nM	100 to 1000 nM
CC1CN(c2nccc(-c3cnc4ccc(C(F)(F)F)cn34)n2)C(C)C(c2cn[nH]c2)N1 (single isomer, unassigned) [I-34, 3-[2-[2,5-dimethyl-3-(1H-pyrazol-4-yl)piperazin-1-yl]pyrimidin-4-yl]-6-(trifluoromethyl)imidazo[1,2-a]pyridine]	< 10 nM	< 500 nM	–
CC1(C)CC1CN1CCN(c2ccnc(-c3cnc4ccc(C(F)(F)F)cn34)n2)CC1c1cn[nH]c1 (stereo not shown) [I-477, 3-(4-(4-((2,2-dimethylcyclopropyl)methyl)-3-(1H-pyrazol-4-yl)piperazin-1-yl)pyrimidin-2-yl)-6-(trifluoromethyl)imidazo[1,2-a]pyridine]	–	< 500 nM	10 to 100 nM
C[C@@H]1[C@@H](CNS(C)(=O)=O)N(C2CC2)[C@H](C)CN1c1ccnc(-c2cnc3ccc(C(F)(F)F)cn23)n1 (stereo in doubt) [I-493, N-(((2R,3R,6R)-1-cyclopropyl-3,6-dimethyl-4-(2-(6-(trifluoromethyl)imidazo[1,2-a]pyridin-3-yl)pyrimidin-4-yl)piperazin-2-yl)methyl)methanesulfonamide]	–	< 500 nM	10 to 100 nM
FC(F)(F)CCN1CCN(c2ccnc(-c3cnc4ccc(C(F)(F)F)cn34)n2)CC1c1cn[nH]c1 (stereo not shown) [I-449, 3-(4-(3-(1H-pyrazol-4-yl)-4-(3,3,3-trifluoropropyl)piperazin-1-yl)pyrimidin-2-yl)-6-(trifluoromethyl)imidazo[1,2-a]pyridine]	–	< 500 nM	< 10 nM
Cc1n[nH]cc1[C@H]1CN(c2ccnc(-c3cnc4ccc(C(F)(F)F)cn34)n2)C[C@@H](C)O1 [I-120]	–	< 500 nM	–
FC(F)(F)c1ccc2ncc(-c3nccc(N4CCN(C[C@@H]5CC56CC6)[C@@H](c5cn[nH]c5)C4)n3)n2c1 [I-554, 3-(4-((S)-3-(1H-pyrazol-4-yl)-4-(((R)-spiro[2.2]pentan-1-yl)methyl)piperazin-1-yl)pyrimidin-2-yl)-6-(trifluoromethyl)imidazo[1,2-a]pyridine]	–	< 500 nM	–
C[C@H]1C[C@@H](c2cn[nH]c2)CN(c2nccc(-c3cnc4ccc(C(F)(F)F)cn34)n2)C1 (mixture of isomers) [I-114, 2-[3-methyl-5-(1H-pyrazol-4-yl)piperidin-1-yl]-4-[6-(trifluoromethyl)imidazo[1,2-a]pyridin-3-yl]pyrimidine]	–	< 500 nM	–
FC(F)(F)c1ccc2ncc(-c3nccc(N4CCN(C[C@@H]5CC56CC6)[C@H](c5cn[nH]c5)C4)n3)n2c1 [I-552, 3-(4-((R)-3-(1H-pyrazol-4-yl)-4-(((R)-spiro[2.2]pentan-1-yl)methyl)piperazin-1-yl)pyrimidin-2-yl)-6-(trifluoromethyl)imidazo[1,2-a]pyridine]	–	< 500 nM	–
C[C@@H]1CN(c2nccc(-c3cnc4ccc(C(F)(F)F)cn34)n2)C[C@H](c2cn[nH]c2)O1 [I-118]	–	< 500 nM	–
FC(F)(F)c1ccc2ncc(-c3nccc(N4CCN(C[C@H]5CC56CC6)[C@@H](c5cn[nH]c5)C4)n3)n2c1 [I-553, 3-(4-((S)-3-(1H-pyrazol-4-yl)-4-(((S)-spiro[2.2]pentan-1-yl)methyl)piperazin-1-yl)pyrimidin-2-yl)-6-(trifluoromethyl)imidazo[1,2-a]pyridine]	–	< 500 nM	–
O=S1(=O)CC2(CC(N3CCN(c4ccnc(-c5cnc6ccc(C(F)(F)F)cn56)n4)C[C@@H]3c3cn[nH]c3)C2)C1 [I-556, (S)-6-(2-(1H-pyrazol-4-yl)-4-(2-(6-(trifluoromethyl)imidazo[1,2-a]pyridin-3-yl)pyrimidin-4-yl)piperazin-1-yl)-2-thiaspiro[3.3]heptane 2,2-dioxide]	–	500 to 5000 nM	–
FC(F)(F)c1ccc2ncc(-c3ccnc(N4CCOC(c5cn[nH]c5)C4)n3)n2c1 (stereo not shown) [I-10, 2-(1H-pyrazol-4-yl)-4-(4-(6-(trifluoromethyl)imidazo[1,2-a]pyridin-3-yl)pyrimidin-2-yl)morpholine]	–	< 500 nM	–
FC(F)(F)c1ccc2ncc(-c3ccnc(N4CCOC(c5cn[nH]c5)C4)n3)n2c1 (stereo not shown) [I-44, 2-(1H-Pyrazol-4-yl)-4-[4-[6-(trifluoromethyl)imidazo[1,2-a]pyridin-3-yl]pyrimidin-2-yl]morpholine]	–	< 500 nM	–
FC(F)(F)c1ccc2ncc(-c3nccc(N4CCOC(c5cn[nH]c5)C4)n3)n2c1 (stereo not shown) [I-2, 1H-Pyrazol-4-yl-4-[2-[6-(trifluoromethyl)imidazo[1,2-a]pyridin-3-yl]pyrimidin-4-yl]morpholine]	–	< 500 nM	–
FC(F)(F)c1ccc2ncc(-c3nccc(N4CCOC(c5cn[nH]c5)C4)n3)n2c1 (stereo not shown) [I-3, 1H-pyrazol-4-yl-4-[2-[6-(trifluoromethyl)imidazo[1,2-a]pyridin-3-yl]pyrimidin-4-yl]morpholine]	–	< 500 nM	–
Cc1[nH]ncc1[C@H]1CN(c2nccc(-c3cnc4ccc(C(F)(F)F)cn34)n2)C[C@@H](C)O1 (relative stereo) [I-115, cis-2-Methyl-6-(3-methyl-1H-pyrazol-4-yl)-4-{4-[6-(trifluoromethyl)imidazo[1,2-a]pyridin-3-yl]pyrimidin-2-yl}morpholine]	–	< 500 nM	–
C[C@@H]1CN(c2nccc(-c3cnc4ccc(C(F)(F)F)cn34)n2)C[C@H](c2cn[nH]c2)O1 (relative stereo) [I-117, cis-2-Methyl-6-(1H-pyrazol-4-yl)-4-{4-[6-(trifluoromethyl)imidazo[1,2-a]pyridin-3-yl]pyrimidin-2-yl}morpholine]	–	< 500 nM	–
